Assay results reported in ChEMBL document CHEMBL1144501, “Synthesis, characterization and biological activity of complexes of lanthanum(III) with 2-(1'-phenyl- 2'-carboxyl-3'-aza-n-butyl)-1,10-phenanthroline and 2-(1'-p-phenol-2'-carboxyl-3'-aza-n-butyl)-1,10-phenanthroline” (Bioorg Med Chem, 2007).

What was measured:
Type in all cases: cell-based
[1] = Cytotoxicity against human BGC823 cells after 72 hrs; conditions: BGC-823, 72 h
[2] = test system: HL-60; assay: Cytotoxicity against human HL60 cells after 72 hrs; conditions: HL-60, 72 h
[3] = test system: MDA-MB-435; assay: Cytotoxicity against human MDA-MB-435 cells after 72 hrs; conditions: MDA-MB-435, 72 h
[4] = Cytotoxicity against human Bel7402 cells after 72 hrs; conditions: Bel-7402, 72 h
[5] = test system: HeLa; assay: Cytotoxicity against human HeLa cells after 72 hrs
[6] = Cytotoxicity against human PC-3MIE8 cells after 72 hrs; conditions: PC-3MIE8, 72 h

Measured: IC50

O=C(O)C(Cc1ccccc1)NCc1ccc2ccc3cccnc3c2n1 (configuration not stated)
> 100 µM: all assays above

O=C(O)C(Cc1ccc(O)cc1)NCc1ccc2ccc3cccnc3c2n1 (configuration not stated)
> 100 µM: all assays above
